As a reminder, the IC50 is the midpoint of a concentration-inhibition curve.

The target in one assay is T1, purified γ-secretase (Homo sapiens, UniProt P49768+Q92542).
T1 construct: made in house
Briefly: cell-free in vitro C100-Flag γ-secretase assay with purified enzyme. It counts as biochemical. As to conditions: for The potency of compound (in vitro C100 γ-secretase assay): 200 µM, compared with DHEC, estimated by densitometry; for inhibition of γ-secretase activity (C100-Flag cleavage): 200 μM; for inhibition of γ-secretase activity (C100-Flag cleavage) / IC50: purified γ-secretase; for IC50: AICD-Flag densitometry, read-out: IC50 in the in vitro γ-secretase activity assay (C100-Flag processing). From the text:
The density of the AICD-Flag and Aβ total bands was quantified by Odyssey software (Supplementary data Fig. S5). […] The residue was then separated by Bicine/urea SDS-PAGE, together with an Aβ standard of synthetic human Aβ38, Aβ40 and Aβ42, followed by Western blot detection with anti-Aβ antibody (6E10, left panel), or quantification by ELISA (right panel). Black bars, Aβ [1–40]; gray bars, Aβ[1–42]. Data were presented as the means ± sd. […] The change in response units over time is shown. […]
γ-Secretase was purified from S-20 cells as described previously. The recombinant APP-based protein substrate of γ-secretase, namely human C100-Flag, was overexpressed in E. coli and purified by using an anti-Flag M2 resin[31]. Full length human NCT was purified as described previously (for details, see Supplementary information)[32].
Cell-free in vitro γ-secretase assays using the recombinant C100-Flag substrate and purified γ-secretase were performed as described in the Supplementary information.
Aβ1-x peptides secreted in the cell media were quantitatively measured by ELISA (IBL, Gunma, Japan) according to the standard protocol from the manufacturer. Aβ40 and Aβ42 generated in the C100-Flag γ-secretase assays stopped with 0.5% SDS (final concentration) were quantified with the human Beta Amyloid or [1–42] colorimetric ELISA kit, respectively. […]
γ-Secretase activity assays
γ-Secretase purified from S-20 cells was solubilized in 0.2% (w/v) CHAPSO in 50 mM HEPES buffer (pH 7.0) containing of 150 mM NaCl, 5 mM MgCl2 and 5 mM CaCl2, and incubated with 0.1% (w/v) PC and 1 μM or otherwise indicated […]
concentrations of substrate at 37 °C for 4 h, after which the enzymatic reactions were stopped by adding 0.5% SDS (final concentration). The samples were analyzed by Western Blot for AICD-Flag or Aβ. […]

For assay [1], the system named is hAPP cleavage by γ-secretase. Briefly: cleavage of APP-CTFs in HEK293 cells overexpressing hAPP. It counts as cell-based, human. Conditions: 20 or 50 μM.

Counter-ions that a name gives are not always drawn. Where a SMILES comes first, the peptide text is derived from it. The star is where a group is joined. Pyrrolidide = C1CCN(*)C1

Regarding `CCC(C)[C@H]1C(=O)N2CCC[C@H]2[C@]2(O)O[C@](NC(=O)[C@@H]3C[C@@H]4c5cccc6[nH]cc(c56)C[C@H]4N(C)C3)(C(C)C)C(=O)N12` (stereo partly drawn) [β-Dihydro-ergocryptine, β-Dihydroergocryptine], at purified γ-secretase, the “The potency of compound (in vitro C100 γ-secretase assay)” value (shortened to “The potency of compound”) is reported as “+” and the “inhibition of γ-secretase activity (C100-Flag cleavage)” value (shortened to “inhibition of γ-secretase activity”) was “inhibited”.

As to `CC(=O)N[C@H](C(=O)N[C@@H](Cc1ccccc1)C(=O)N1CCCC1)C(C)C` [AMBE] (Ac-Val-Phe-Pyrrolidide), at purified γ-secretase, the “The potency of compound” value is recorded as “-” and the “inhibition of γ-secretase activity” value is on record as “did not show any inhibitory activity”.

As for `CC(C)C[C@H]1C(=O)N2CCC[C@H]2[C@]2(O)O[C@](NC(=O)[C@@H]3C=C4c5cccc6[nH]cc(c56)C[C@H]4N(C)C3)(C(C)C)C(=O)N12` [α-Ergocryptine, α-ergocryptine], on purified γ-secretase, the “The potency of compound” value is reported as “+++” and the “inhibition of γ-secretase activity” value is “inhibited”.

`CN1C[C@H](CNC(=O)OCc2ccccc2)C[C@@H]2c3cccc4c3c(cn4C)C[C@H]21` [Metergoline, metergoline]: at purified γ-secretase, the “The potency of compound” value was “-” and the “inhibition of γ-secretase activity” value was “did not inhibit”.

Regarding `CC[C@@H](CO)NC(=O)[C@@H]1C=C2c3cccc4[nH]cc(c34)C[C@H]2N(C)C1` [Methyl-ergometrine, methylergometrine], at purified γ-secretase, the “The potency of compound” value is “-” and the “inhibition of γ-secretase activity” value is reported as “did not inhibit”.

On to `CC(C)C[C@H]1C(=O)N2CCC[C@H]2[C@]2(O)O[C@](NC(=O)[C@@H]3C=C4c5cccc6[nH]c(Br)c(c56)C[C@H]4N(C)C3)(C(C)C)C(=O)N12` [2-Bromo-α-ergocryptine, 2-bromo-α-ergocryptine methanesulfonate salt], for which, on purified γ-secretase, the “The potency of compound” value is given as “+++”, the “inhibition of γ-secretase activity” value was “retained the ability to inhibit” and the IC50 is roughly 50 µM. Moreover, the “cleavage of APP-CTFs / accumulation of APP-CTFs” value in assay [1] is “inactive”.

For `CC(C)C[C@H]1C(=O)N2CCC[C@H]2[C@]2(O)O[C@](NC(=O)OCc3ccccc3)(C(C)C)C(=O)N12` [CABA, [2R-(2α, 5α, 10aβ, 10bα)]-[Octahydro-10b-hydroxy-2-(1-methylethyl)-5-(2-methylpropyl)-3,6-dioxo-8H-oxazolo[3,2-a]pyrrolo[2,1-c]pyrazin-2-yl]-carbamic acid], the IC50 at purified γ-secretase was roughly 100 µM. Also, in assay [1], the “cleavage of APP-CTFs / accumulation of APP-CTFs” value was “accumulation of APP-CTFs only when administered at a concentration of 50 μM”.

On to `CN1C[C@H](C(=O)N[C@]2(C)O[C@@]3(O)[C@@H]4CCCN4C(=O)[C@H](Cc4ccccc4)N3C2=O)C=C2c3cccc4[nH]cc(c34)C[C@H]21` [Ergotamine, ergotamine tartrate], for which, at purified γ-secretase, the “The potency of compound” value is “-” and the “inhibition of γ-secretase activity” value is given as “did not inhibit”.

With `CCCN1C[C@H](CSC)C[C@@H]2c3cccc4[nH]cc(c34)C[C@H]21` [Pergolide, pergolide mesylate salt], at purified γ-secretase, the “The potency of compound” value is “-” and the “inhibition of γ-secretase activity” value is reported as “did not inhibit”.

Regarding `CN1C[C@H](C(=O)N[C@]2(C)O[C@@]3(O)[C@@H]4CCCN4C(=O)[C@H](Cc4ccccc4)N3C2=O)C[C@@H]2c3cccc4[nH]cc(c34)C[C@H]21` [Dihydro-ergotamine (DHE), dihydroergotamine methanesulfonate salt], on purified γ-secretase, the “The potency of compound” value was “-” and the “inhibition of γ-secretase activity” value is “did not inhibit”.

(Values after paper PMC4644980, “The FDA-approved natural product dihydroergocristine reduces the production of the Alzheimer’s disease amyloid-β peptides” (Scientific Reports, 2015).)
